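Briefly, cells in 96-well plates were exposed to five compound concentrations for 48 h, and endpoints were estimated by linear interpolation. The concentration for full growth arrest is given as TGI.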
Experiments:
Experiment in all cases: NCI anticancer screen, dose series, 48 h
[1] = tested on: CCRF-CEM leukemia
[2] = tested on: HCC-2998 colon
[3] = tested on: HCT-15 colon
[4] = tested on: KM12 colon
[5] = tested on: MDA-MB-231 breast
[6] = tested on: MDA-MB-435
[7] = tested on: NCI-H522 lung
[8] = tested on: NCI/ADR-RES ovarian
[9] = tested on: OVCAR-4 ovarian
[10] = tested on: OVCAR-5 ovarian
[11] = tested on: OVCAR-8 ovarian
[12] = tested on: PC-3 prostate
[13] = tested on: RXF 393 renal
[14] = tested on: SF-268 CNS
[15] = tested on: SK-MEL-5 melanoma
[16] = tested on: SNB-75 CNS
[17] = tested on: T-47D breast
[18] = tested on: U251 CNS
[19] = tested on: UO-31 renal
[20] = tested on: HL-60(TB) leukemia

COc1cc(CNc2nc3ccccc3n2Cc2ccccc2)cc(CN2CCOCC2)c1O
TGI [1]: > 100 µM
TGI [2]: 85.1 µM
TGI [3]: 70.6 µM
TGI [4]: > 100 µM
TGI [5]: 38.1 µM
TGI [6]: 44.7 µM
TGI [7]: 78.2 µM
TGI [8]: 65.6 µM
TGI [9]: > 100 µM
TGI [10]: 87.8 µM
TGI [11]: > 100 µM
TGI [12]: 99.5 µM
TGI [13]: 47.7 µM
TGI [14]: > 100 µM
TGI [15]: 34.2 µM
TGI [16]: 83.9 µM
TGI [17]: > 100 µM
TGI [18]: 93.1 µM
TGI [19]: 52.5 µM

CCN(CC)CCOc1ccc(N2Cc3ccccc3C2=O)cc1
TGI [1]: > 10 µM
TGI [2]: > 10 µM
TGI [3]: > 10 µM
TGI [20]: > 10 µM
TGI [5]: > 10 µM
TGI [6]: > 10 µM
TGI [7]: > 10 µM
TGI [8]: > 10 µM
TGI [9]: > 10 µM
TGI [10]: > 10 µM
TGI [11]: > 10 µM
TGI [12]: > 10 µM
TGI [13]: > 10 µM
TGI [14]: > 10 µM
TGI [15]: > 10 µM
TGI [16]: > 10 µM
TGI [17]: > 10 µM
TGI [18]: > 10 µM
TGI [19]: > 10 µM

CCN(CC)CCSc1n[nH]c(-c2c[nH]c3nc(C)ccc3c2=O)n1
TGI [1]: > 100 µM
TGI [3]: > 100 µM
TGI [20]: > 100 µM
TGI [4]: > 100 µM
TGI [5]: > 100 µM
TGI [6]: > 100 µM
TGI [7]: > 100 µM
TGI [8]: > 100 µM
TGI [9]: > 100 µM
TGI [10]: > 100 µM
TGI [11]: > 100 µM
TGI [12]: > 100 µM
TGI [13]: > 100 µM
TGI [14]: > 100 µM
TGI [15]: > 100 µM
TGI [17]: > 100 µM
TGI [18]: > 100 µM
TGI [19]: > 100 µM

O=C1CCc2nc3ncccc3cc2C1
TGI [1]: 72.8 µM
TGI [2]: > 100 µM
TGI [3]: > 100 µM
TGI [5]: > 100 µM
TGI [6]: 82.3 µM
TGI [7]: 55.4 µM
TGI [8]: > 100 µM
TGI [9]: > 100 µM
TGI [10]: > 100 µM
TGI [12]: > 100 µM
TGI [13]: > 100 µM
TGI [14]: > 100 µM
TGI [15]: > 100 µM
TGI [16]: > 100 µM
TGI [17]: > 100 µM
TGI [19]: > 100 µM

FC(F)(F)c1ccc2c(c1)nc(Cc1ccc(Cl)c(Cl)c1)n2CC1CCCN2CCCCC12 (stereo not given)
TGI [2]: 22.5 µM
TGI [3]: > 100 µM
TGI [20]: 51.3 µM
TGI [4]: > 100 µM
TGI [5]: 48.7 µM
TGI [6]: > 100 µM
TGI [7]: 30.8 µM
TGI [8]: 84.7 µM
TGI [9]: > 100 µM
TGI [10]: 46.2 µM
TGI [11]: > 100 µM
TGI [12]: > 100 µM
TGI [13]: > 100 µM
TGI [14]: > 100 µM
TGI [15]: 30.3 µM
TGI [16]: > 100 µM
TGI [17]: > 100 µM
TGI [18]: 59.7 µM

N#Cc1nc(Sc2cnsn2)c(Sc2cnsn2)nc1C#N
TGI [2]: 33.5 µM
TGI [3]: 13.1 µM
TGI [20]: 6.24 µM
TGI [4]: 40.4 µM
TGI [5]: 48.7 µM
TGI [6]: 33.8 µM
TGI [7]: 8.53 µM
TGI [8]: 54.3 µM
TGI [9]: 61.1 µM
TGI [10]: 38.8 µM
TGI [11]: > 75.5 µM
TGI [12]: 51 µM
TGI [13]: 12.3 µM
TGI [14]: 40.6 µM
TGI [15]: 29.4 µM
TGI [16]: 48.8 µM
TGI [17]: > 27.6 µM
TGI [18]: > 90.1 µM
TGI [19]: 65.6 µM

Brc1cccc(Nc2ncnc3sc4c(c23)CCC(Nc2cccc(Br)c2)C4)c1 (stereo not given)
TGI [1]: > 100 µM
TGI [2]: > 100 µM
TGI [3]: > 100 µM
TGI [4]: > 100 µM
TGI [5]: > 100 µM
TGI [6]: > 100 µM
TGI [7]: > 100 µM
TGI [8]: > 100 µM
TGI [9]: > 100 µM
TGI [10]: > 100 µM
TGI [11]: > 100 µM
TGI [12]: > 100 µM
TGI [13]: > 100 µM
TGI [14]: > 100 µM
TGI [15]: > 100 µM
TGI [16]: > 100 µM
TGI [17]: > 100 µM
TGI [18]: > 100 µM
TGI [19]: > 100 µM

CC1(C)C(=O)N(O)C(C)(C)N1N=O
TGI [1]: > 10 µM
TGI [2]: > 10 µM
TGI [3]: > 10 µM
TGI [20]: > 10 µM
TGI [4]: > 10 µM
TGI [5]: > 10 µM
TGI [6]: > 10 µM
TGI [7]: > 10 µM
TGI [8]: > 10 µM
TGI [9]: > 10 µM
TGI [10]: > 10 µM
TGI [11]: > 10 µM
TGI [12]: > 10 µM
TGI [13]: > 10 µM
TGI [14]: > 10 µM
TGI [17]: > 10 µM
TGI [18]: > 10 µM
TGI [19]: > 10 µM

CC(=O)/C(N=Nc1ccc(-n2c(C)nc3ccc(Br)cc3c2=O)cc1)=C(/C)O
TGI [1]: > 100 µM
TGI [3]: > 100 µM
TGI [20]: > 100 µM
TGI [4]: > 100 µM
TGI [5]: > 100 µM
TGI [6]: > 100 µM
TGI [8]: > 100 µM
TGI [10]: > 100 µM
TGI [11]: > 100 µM
TGI [12]: > 100 µM
TGI [14]: > 100 µM
TGI [15]: > 100 µM
TGI [16]: 77 µM
TGI [17]: > 100 µM
TGI [18]: > 100 µM
TGI [19]: > 100 µM

CC(=O)OCC1OC(O[C@@H]2C[C@H]3C(C)(C)[C@H](OC(C)=O)CC[C@]3(C)[C@H]3CC[C@]4(C)C(=CC[C@H]4[C@@H](C)C[C@@H](O)[C@H](O)C(C)(C)O)[C@@]32C)C(O)C(O)C1O (stereo not given in full)
TGI [1]: 35.1 µM
TGI [2]: 35.1 µM
TGI [3]: 31.4 µM
TGI [20]: 33.3 µM
TGI [5]: 31.2 µM
TGI [6]: 28 µM
TGI [7]: 5.07 µM
TGI [8]: > 100 µM
TGI [9]: 29.8 µM
TGI [10]: 27.1 µM
TGI [11]: 33.4 µM
TGI [12]: 30.8 µM
TGI [14]: 29.3 µM
TGI [16]: 36.5 µM
TGI [17]: 32 µM
TGI [18]: 25.3 µM
TGI [19]: 31.9 µM

O=C1NC(=O)[C@@H](OCC2CCCCC2)[C@@H]2OCC3OC(C(O)C3O)C12 (stereo not given in full)
TGI [1]: > 100 µM
TGI [2]: > 100 µM
TGI [3]: > 100 µM
TGI [20]: > 100 µM
TGI [4]: > 100 µM
TGI [5]: > 100 µM
TGI [6]: > 100 µM
TGI [8]: > 100 µM
TGI [9]: > 100 µM
TGI [10]: > 100 µM
TGI [11]: > 100 µM
TGI [12]: > 100 µM
TGI [13]: > 100 µM
TGI [14]: > 100 µM
TGI [15]: > 100 µM
TGI [17]: > 100 µM

COc1cc(C2=C(C)[C@@H]3CN(CC=C3c3ccc(Cl)cc3)C2)c(S(=O)(=O)O)cc1OC
TGI [1]: > 100 µM
TGI [3]: > 100 µM
TGI [4]: > 100 µM
TGI [5]: > 100 µM
TGI [6]: > 100 µM
TGI [7]: > 100 µM
TGI [8]: > 100 µM
TGI [9]: > 100 µM
TGI [10]: > 100 µM
TGI [11]: > 100 µM
TGI [12]: > 100 µM
TGI [13]: > 100 µM
TGI [14]: > 100 µM
TGI [15]: > 100 µM
TGI [16]: > 100 µM
TGI [17]: > 100 µM
TGI [18]: > 100 µM
TGI [19]: > 100 µM

COC(=O)/C=C\[C@@H]1[C@H](C)N1S(=O)(=O)c1ccc(C)cc1 (stereo not given in full)
TGI [1]: > 100 µM
TGI [2]: > 100 µM
TGI [3]: > 100 µM
TGI [20]: > 100 µM
TGI [5]: > 100 µM
TGI [6]: > 100 µM
TGI [7]: > 100 µM
TGI [8]: > 100 µM
TGI [9]: > 100 µM
TGI [10]: > 100 µM
TGI [11]: > 100 µM
TGI [12]: > 100 µM
TGI [13]: > 100 µM
TGI [14]: > 100 µM
TGI [15]: > 100 µM
TGI [17]: > 100 µM
TGI [18]: > 100 µM
